From ChEMBL document CHEMBL4251753, “Discovery of Potent 2-Aryl-6,7-dihydro-5 H-pyrrolo[1,2- a]imidazoles as WDR5-WIN-Site Inhibitors Using Fragment-Based Methods and Structure-Based Design” (J Med Chem, 2018) come the findings set out here.

The test deals with MV4-11. Briefly: Antiproliferative activity against human MV4-11 cells after 7 days by cell titer glo assay. The conditions noted are these: MV4-11, 168 h. In kind it is functional.
In the case of `COc1cc(C(=O)N[C@@H]2CCc3ccc(-c4cn5c(n4)CCC5)cc32)cc(OC)c1C`, it took 7.25 µM to inhibit growth by half (GI50).
Turning to `O=C(Cc1ccc(Cl)c(Cl)c1)N[C@@H]1CCc2ccc(-c3cn4c(n3)CCC4)cc21`, halving of growth (GI50) required 8.89 µM.
The molecule `COc1cc(C(=O)N[C@@H]2CCCc3ccc(-c4cn5c(n4)CCC5)cc32)ccc1C` showed a GI50 of 22.3 µM.
For the molecule `Cc1cc(C(=O)N[C@@H]2CCc3ccc(-c4cn5c(n4)CCC5)cc32)ccn1`, the GI50 is greater than 30 µM.

The term GI50 denotes the concentration giving 50% growth inhibition.
